Consider six compounds from ChEMBL document CHEMBL6109163, “6-Aryl Isoindolin-1-ones: Novel mGluR2 Negative Allosteric Modulators” (ACS Med Chem Lett, 2025).

What is called IC50 is the concentration at which inhibition is half-maximal.

The structures appear in SMILES notation.

Assay [1] deals with Metabotropic glutamate receptor 3 (Rattus norvegicus, UniProt P31422). As to the kind of experiment: Negative allosteric modulator activity at rat mGluR3 receptor by TI flux assay-based fluorescence analysis.
Metabotropic glutamate receptor 3, sequence (P31422 whole entry): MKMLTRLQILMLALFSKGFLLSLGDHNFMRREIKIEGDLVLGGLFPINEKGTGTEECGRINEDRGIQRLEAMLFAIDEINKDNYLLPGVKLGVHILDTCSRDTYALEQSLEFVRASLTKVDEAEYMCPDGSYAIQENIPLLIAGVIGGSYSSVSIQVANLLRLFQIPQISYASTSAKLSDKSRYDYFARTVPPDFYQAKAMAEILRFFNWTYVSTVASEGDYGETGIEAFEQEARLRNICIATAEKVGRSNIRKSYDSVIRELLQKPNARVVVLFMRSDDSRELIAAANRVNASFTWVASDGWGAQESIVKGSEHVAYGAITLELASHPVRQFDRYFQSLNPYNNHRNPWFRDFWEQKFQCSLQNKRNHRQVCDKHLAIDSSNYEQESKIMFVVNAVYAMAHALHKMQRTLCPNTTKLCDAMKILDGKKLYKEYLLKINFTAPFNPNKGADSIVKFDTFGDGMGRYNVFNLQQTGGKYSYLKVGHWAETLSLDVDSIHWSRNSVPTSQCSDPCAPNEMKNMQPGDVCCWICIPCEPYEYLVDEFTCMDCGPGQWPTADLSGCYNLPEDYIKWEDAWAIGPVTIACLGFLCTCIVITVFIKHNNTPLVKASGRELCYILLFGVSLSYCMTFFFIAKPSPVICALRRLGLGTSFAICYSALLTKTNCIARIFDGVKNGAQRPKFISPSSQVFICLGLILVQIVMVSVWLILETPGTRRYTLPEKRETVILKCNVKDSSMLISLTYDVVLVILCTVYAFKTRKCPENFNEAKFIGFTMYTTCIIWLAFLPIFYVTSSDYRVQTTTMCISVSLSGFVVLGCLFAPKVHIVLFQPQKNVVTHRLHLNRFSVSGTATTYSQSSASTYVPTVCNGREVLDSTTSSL
The target in assay [2] is Metabotropic glutamate receptor 2 (Rattus norvegicus, UniProt P31421). Nature of the assay: Negative allosteric modulator activity at glutamate-stimulated rat mGluR2 receptor expressed in HEK293 cells assessed as inhibition of thallium flux preincubated for 2 mins 20 secs followed by glutamate addition and measured for 2.5 mins by fluorescence based analysis. Type of assay: cell-based.
Metabotropic glutamate receptor 2, sequence (P31421 whole entry): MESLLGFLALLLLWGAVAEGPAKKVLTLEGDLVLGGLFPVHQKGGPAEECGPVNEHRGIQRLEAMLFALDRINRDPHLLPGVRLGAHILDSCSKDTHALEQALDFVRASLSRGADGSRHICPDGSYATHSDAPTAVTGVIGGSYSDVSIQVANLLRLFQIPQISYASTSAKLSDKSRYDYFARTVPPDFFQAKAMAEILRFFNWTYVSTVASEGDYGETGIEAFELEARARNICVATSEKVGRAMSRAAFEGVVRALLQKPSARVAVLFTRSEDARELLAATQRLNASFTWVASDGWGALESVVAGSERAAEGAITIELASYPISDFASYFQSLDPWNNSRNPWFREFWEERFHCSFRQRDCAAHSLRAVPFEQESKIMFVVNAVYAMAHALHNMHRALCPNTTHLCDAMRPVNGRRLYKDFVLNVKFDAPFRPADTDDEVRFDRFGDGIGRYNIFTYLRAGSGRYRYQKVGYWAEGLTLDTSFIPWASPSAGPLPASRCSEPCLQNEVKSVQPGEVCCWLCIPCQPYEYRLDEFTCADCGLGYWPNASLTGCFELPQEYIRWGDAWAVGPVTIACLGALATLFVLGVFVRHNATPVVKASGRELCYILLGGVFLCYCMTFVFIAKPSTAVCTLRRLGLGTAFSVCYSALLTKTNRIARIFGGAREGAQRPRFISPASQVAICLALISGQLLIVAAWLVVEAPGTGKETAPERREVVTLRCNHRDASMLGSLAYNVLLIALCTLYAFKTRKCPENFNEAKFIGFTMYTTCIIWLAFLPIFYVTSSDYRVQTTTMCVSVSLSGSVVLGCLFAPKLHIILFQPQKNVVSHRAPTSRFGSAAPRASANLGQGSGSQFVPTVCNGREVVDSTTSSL

For the compound `O=C1NCc2cc(C3CCOCC3)c(-c3ccc(F)cc3)cc21`, the IC50 in assay [1] is over 10 µM.
Still for that read-out and setting: as for `Cc1ccc(-c2cc3c(cc2-c2ccc(F)cc2)C(=O)NC3)nc1`, the figure is over 10 µM; as for `N#Cc1cccc(-c2cc3c(cc2-c2ccc(F)cc2F)C(=O)NC3)c1F`, over 10 µM.
On to `Cc1ccc(-c2cc3c(cc2-c2ccc(F)cc2)C(=O)NC3)cn1`, for which the values for the IC50 in assay [2] and in assay [1] were 0.659 µM and over 10 µM, respectively.
With `O=C1NCc2cc(-c3cnc4[nH]ccc4c3)c(-c3ccc(F)cc3F)cc21`, in assay [1], the IC50 is over 10 µM.
In the case of `O=C1NCc2cc(-c3cccnc3C3CC3)c(-c3ccc(F)cc3F)cc21`, the 50% inhibitory concentration (IC50) in assay [2] is 0.693 µM; in assay [1] it was over 10 µM.
